This note sets out measurements from patent US20130137081A1, “METHOD OF CRYOPRESERVING SELECTED SPERM CELLS” (XY,LLC, priority 1999, published 2013).

Experiment [1] relates to flow-sorted bull sperm. As to the kind of experiment: Post-thaw motility of bulk-sorted frozen sperm: Hoechst 33342 dye concentration and laser intensity (Example 3). Type of experiment: cell-based, bovine. Particulars: for post-thaw motility: main effect mean. The method, then:
Straws were thawed in a 37° C. water bath for 30 sec. Blind estimates of progressive motility were made after incubating samples at 37° C. for 0, 1 and 2 h post-thawing. Each of two observers estimated progressive sperm motility from each of two straws of semen. These four blind estimates for each experimental unit represent subsampling.
Sperm of 6 bulls were collected and prepared as described in Example 1A.
a) Experimental Design. • One ejaculate (2 bulls) and 2 ejaculates on different days (4 bulls) were used in a 2 by 2 design plus control.
b) Staining and Sorting. • Staining, preparation for sorting and sorting sperm were achieved as described in Example 2 except that the Hoechst 33342 dye was added to sperm suspensions at a final concentration of 149 μM or 224 μM; and sperm were bulked-sorted with the laser operating at 100 mW or 150 mW of incident power. Bulk-sorted sperm were collected into 50-ml plastic tubes as described in Example 2. Four tubes containing approximately 15×10^6 total sperm/tube were collected over 1 h for each bull. The sorted sperm were incubated for 1 h at 22° C. to simulate a longer sorting time.
c) Preparation for Freezing. • Following incubation, the sperm were cooled as in Example 2. The sperm were then concentrated by centrifugation at 5° C. at 850×g for 20 minutes. After removing the supernatant, 150 μl of Tris-A fraction extender was added to each 150-μl sperm pellet at 5° C. All of the sperm pellets were suspended by gentle repeated aspiration and the sperm of individual bulls were pooled. Tris B-fraction extender was added stepwise as described in Example 2. A non-stained, non-sorted control for each bull was prepared at 20×10^6 sperm/ml in Tris extender containing 6% glycerol and cooled to 5° C. while the bulk-sorted sperm were being prepared.
d) Equilibration and Freezing. • The control and sorted sperm were packaged into 0.25-ml polyvinylchloride straws as described in Example 2, equilibrated at 5° C. for 3 h and then frozen conventionally.
Straws were thawed and evaluated as described in Example 2.

The subject of experiment [2] is bull sperm. Kind of experiment: Post-thaw progressive motility of sperm frozen in WET extender with SDS (Example 5A). Type of experiment: cell-based, bovine. Conditions: mean of 6 bulls. The method, then:
Sperm of 6 bulls were collected and prepared as described in Example 1A. Sperm from each of 6 bulls were extended to 20×10^6/ml in 20% whole egg Tris (“WET”) extender containing 0, 0.03, 0.06, 0.09, or 0.12 percent SDS, packaged into straws and frozen. WET extender was prepared using 3.028 g of Tris[hydroxymethyl]aminomethane, 1.78 g of citric acid monohydrate, and 1.25 g of fructose per 100 ml of double distilled water, to which 20% whole egg (vol/vol) was added. The WET extender was prepared at a pH of about 7.0 and contained a final glycerol concentration of about 6% (vol/vol). The WET extender also contained 1000 IU of penicillin “G” sodium and 100 μg of streptomycin sulfate/ml.

Consider `CCOc1ccc(-c2nc3ccc(-c4nc5ccc(N6CCN(C)CC6)cc5[nH]4)cc3[nH]2)cc1` [Hoechst 33342, bis-Benzimide H-33342], for which the “effect of dye concentration on post-thaw sperm motility” value in experiment [1] (149 μM vs 224 μM) is reported as “no effect”. Moreover, the post-thaw motility in experiment [1] (Hoechst 33342 149 μM, 0 h incubation at 37° C.) is recorded as 41%; in experiment [1] (Hoechst 33342 149 μM, 1 h incubation at 37° C.), 39%; in experiment [1] (Hoechst 33342 149 μM, 2 h incubation at 37° C.) it was 30%; in experiment [1] (Hoechst 33342 224 μM, 0 h incubation at 37° C.), 42%; in experiment [1] (Hoechst 33342 224 μM, 1 h incubation at 37° C.) it was 39%; in experiment [1] (Hoechst 33342 224 μM, 2 h incubation at 37° C.), 30%.
As to `CCCCCCCCCCCCOS(=O)(=O)[O-].[Na+]` [SDS, sodium dodecyl sulfate], the “progressive motile sperm approximately 10 minutes post-thaw” value in experiment [2] (WET extender containing 0.03 percent SDS) is given as 51%; in experiment [2] (WET extender containing 0.06 percent SDS) it was 50%; in experiment [2] (WET extender containing 0.09 percent SDS) it was 51%; in experiment [2] (WET extender containing 0.12 percent SDS) it was 48%.
